Data as given in PubChem BioAssay AID1919005 (Molecular Pharmacology Branch, DTP, NCI, 2023).

Tested on: 855422-203-R-J1-PDC complex spheroid growth
Experiment: Anticancer human tumor 855422-203-R-J1-PDC patient-derived bladder carcinoma cell line growth inhibition [AhR]
Conditions: for IC50: curve of first compound; for viability, T/C: stronger effect = lower value
Outline: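 Agents were dosed in half-log steps down from roughly clinical Cmax, or from 10 microM where Cmax was unknown, alone and with AhR antagonists. Read-out: percent test/control growth of tumor spheroids containing HUVEC and MSC stromal cells.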

[1] = second compound 0.1 µM, first compound 0.0316 µM
[2] = second compound 0.1 µM, first compound 0.1 µM
[3] = second compound 0.1 µM, first compound 0.316 µM
[4] = second compound 0.1 µM, first compound 1 µM
[5] = second compound 0.1 µM, first compound 3.16 µM
[6] = second compound 0.1 µM, first compound 10 µM
[7] = second compound 0.316 µM, first compound 0.0316 µM
[8] = second compound 0.316 µM, first compound 0.1 µM
[9] = second compound 0.316 µM, first compound 0.316 µM
[10] = second compound 0.316 µM, first compound 1 µM
[11] = second compound 0.316 µM, first compound 3.16 µM
[12] = second compound 0.316 µM, first compound 10 µM
[13] = second compound 1 µM, first compound 0.0316 µM
[14] = second compound 1 µM, first compound 0.1 µM
[15] = second compound 1 µM, first compound 0.316 µM
[16] = second compound 1 µM, first compound 1 µM
[17] = second compound 1 µM, first compound 3.16 µM
[18] = second compound 1 µM, first compound 10 µM
[19] = second compound 3.16 µM, first compound 0.0316 µM
[20] = second compound 3.16 µM, first compound 0.1 µM
[21] = second compound 3.16 µM, first compound 0.316 µM
[22] = second compound 3.16 µM, first compound 1 µM
[23] = second compound 3.16 µM, first compound 3.16 µM
[24] = second compound 3.16 µM, first compound 10 µM
[25] = second compound 10 µM, first compound 0.0316 µM
[26] = second compound 10 µM, first compound 0.1 µM
[27] = second compound 10 µM, first compound 0.316 µM
[28] = second compound 10 µM, first compound 1 µM
[29] = second compound 10 µM, first compound 3.16 µM
[30] = second compound 10 µM, first compound 10 µM
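Note: spheroids exposed to agents for seven days before readout.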
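Throughout, for viability, T/C: percent of DMSO vehicle control luminescence viability.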

CCN(c1cc(-c2ccc(CN3CCOCC3)cc2)cc(C(=O)NCc2c(C)cc(C)[nH]c2=O)c1C)C1CCOCC1 + CC(CO)NC(=O)c1cc(-c2ccc(Cl)cc2)nn(-c2cnn(C)c2)c1=O
IC50 (second compound 0.1 µM): > 3000 nM
IC50 (second compound 0.316 µM): > 3000 nM
IC50 (second compound 1 µM): > 3000 nM
IC50 (second compound 3.16 µM): > 3000 nM
IC50 (second compound 10 µM): > 3000 nM
viability, T/C (second compound 0.1 µM, first compound 0.00949 µM): 94.1%
viability, T/C (second compound 0.1 µM, first compound 0.03 µM): 102%
viability, T/C (second compound 0.1 µM, first compound 0.0949 µM): 94.3%
viability, T/C (second compound 0.1 µM, first compound 0.3 µM): 95.7%
viability, T/C (second compound 0.1 µM, first compound 0.949 µM): 86.2%
viability, T/C (second compound 0.1 µM, first compound 3 µM): 88.5%
viability, T/C (second compound 0.316 µM, first compound 0.00949 µM): 112%
viability, T/C (second compound 0.316 µM, first compound 0.03 µM): 109%
viability, T/C (second compound 0.316 µM, first compound 0.0949 µM): 100%
viability, T/C (second compound 0.316 µM, first compound 0.3 µM): 95.5%
viability, T/C (second compound 0.316 µM, first compound 0.949 µM): 92.1%
viability, T/C (second compound 0.316 µM, first compound 3 µM): 92.6%
viability, T/C (second compound 1 µM, first compound 0.00949 µM): 100%
viability, T/C (second compound 1 µM, first compound 0.03 µM): 105%
viability, T/C (second compound 1 µM, first compound 0.0949 µM): 114%
viability, T/C (second compound 1 µM, first compound 0.3 µM): 94.5%
viability, T/C (second compound 1 µM, first compound 0.949 µM): 91.9%
viability, T/C (second compound 1 µM, first compound 3 µM): 88.8%
viability, T/C (second compound 3.16 µM, first compound 0.00949 µM): 98.6%
viability, T/C (second compound 3.16 µM, first compound 0.03 µM): 95.2%
viability, T/C (second compound 3.16 µM, first compound 0.0949 µM): 103%
viability, T/C (second compound 3.16 µM, first compound 0.3 µM): 94.1%
viability, T/C (second compound 3.16 µM, first compound 0.949 µM): 86%
viability, T/C (second compound 3.16 µM, first compound 3 µM): 77.4%
viability, T/C (second compound 10 µM, first compound 0.00949 µM): 96.5%
viability, T/C (second compound 10 µM, first compound 0.03 µM): 102%
viability, T/C (second compound 10 µM, first compound 0.0949 µM): 83.5%
viability, T/C (second compound 10 µM, first compound 0.3 µM): 92.8%
viability, T/C (second compound 10 µM, first compound 0.949 µM): 103%
viability, T/C (second compound 10 µM, first compound 3 µM): 80.7%

O=C(C=Cc1cccc(S(=O)(=O)Nc2ccccc2)c1)NO + Cc1cncc(-c2nc(NCCc3c[nH]c4ccccc34)c3ncn(C(C)C)c3n2)c1
IC50 (second compound 0.1 µM): 1480 nM
IC50 (second compound 0.316 µM): 1390 nM
IC50 (second compound 1 µM): 1140 nM
IC50 (second compound 3.16 µM): 494 nM
IC50 (second compound 10 µM): < 31.6 nM
viability, T/C [1]: 81.7%
viability, T/C [2]: 86.4%
viability, T/C [3]: 85.2%
viability, T/C [4]: 62.5%
viability, T/C [5]: 23.9%
viability, T/C [6]: 0.91%
viability, T/C [7]: 84.8%
viability, T/C [8]: 82.9%
viability, T/C [9]: 81.5%
viability, T/C [10]: 59.9%
viability, T/C [11]: 23.5%
viability, T/C [12]: 0.69%
viability, T/C [13]: 82.6%
viability, T/C [14]: 84.4%
viability, T/C [15]: 72%
viability, T/C [16]: 53.3%
viability, T/C [17]: 23.9%
viability, T/C [18]: 0.75%
viability, T/C [19]: 73.5%
viability, T/C [20]: 82.4%
viability, T/C [21]: 66%
viability, T/C [22]: 23.5%
viability, T/C [23]: 12.2%
viability, T/C [24]: 0.58%
viability, T/C [25]: 29.9%
viability, T/C [26]: 36.2%
viability, T/C [27]: 8.93%
viability, T/C [28]: 3.43%
viability, T/C [29]: 1.25%
viability, T/C [30]: 0.31%

Nc1ccccc1NC(=O)c1ccc(CNC(=O)OCc2cccnc2)cc1 + Cc1cncc(-c2nc(NCCc3c[nH]c4ccccc34)c3ncn(C(C)C)c3n2)c1
IC50 (second compound 0.1 µM): 2660 nM
IC50 (second compound 0.316 µM): 2310 nM
IC50 (second compound 1 µM): 2010 nM
IC50 (second compound 3.16 µM): 475 nM
IC50 (second compound 10 µM): < 31.6 nM
viability, T/C [1]: 88.7%
viability, T/C [2]: 81.7%
viability, T/C [3]: 76.4%
viability, T/C [4]: 74.3%
viability, T/C [5]: 45.2%
viability, T/C [6]: 5.46%
viability, T/C [7]: 86.9%
viability, T/C [8]: 83.7%
viability, T/C [9]: 69.5%
viability, T/C [10]: 76.4%
viability, T/C [11]: 40.7%
viability, T/C [12]: 5.76%
viability, T/C [13]: 88.7%
viability, T/C [14]: 87.9%
viability, T/C [15]: 78.2%
viability, T/C [16]: 73.9%
viability, T/C [17]: 35.4%
viability, T/C [18]: 4.53%
viability, T/C [19]: 82.2%
viability, T/C [20]: 73.8%
viability, T/C [21]: 63.9%
viability, T/C [22]: 26.4%
viability, T/C [23]: 22.1%
viability, T/C [24]: 5.42%
viability, T/C [25]: 7.49%
viability, T/C [26]: 5.93%
viability, T/C [27]: 0.88%
viability, T/C [28]: 0.3%
viability, T/C [29]: 0.17%
viability, T/C [30]: 0.17%

COc1cc(C2c3cc4c(cc3C(OC3OC5COC(C)OC5C(O)C3O)C3COC(=O)C23)OCO4)cc(OC)c1O (stereo not given) + CC(CO)NC(=O)c1cc(-c2ccc(Cl)cc2)nn(-c2cnn(C)c2)c1=O
IC50 (second compound 0.1 µM): 551 nM
IC50 (second compound 0.316 µM): 573 nM
IC50 (second compound 1 µM): 498 nM
IC50 (second compound 3.16 µM): 327 nM
IC50 (second compound 10 µM): 251 nM
viability, T/C [1]: 104%
viability, T/C [2]: 93.5%
viability, T/C [3]: 72.9%
viability, T/C [4]: 25.6%
viability, T/C [5]: 12.7%
viability, T/C [6]: 6.98%
viability, T/C [7]: 94.2%
viability, T/C [8]: 96%
viability, T/C [9]: 75.6%
viability, T/C [10]: 25.4%
viability, T/C [11]: 12.1%
viability, T/C [12]: 5.1%
viability, T/C [13]: 98.5%
viability, T/C [14]: 103%
viability, T/C [15]: 64.3%
viability, T/C [16]: 25.6%
viability, T/C [17]: 11.1%
viability, T/C [18]: 4.66%
viability, T/C [19]: 89.5%
viability, T/C [20]: 91.8%
viability, T/C [21]: 48.2%
viability, T/C [22]: 19.4%
viability, T/C [23]: 9.59%
viability, T/C [24]: 3.77%
viability, T/C [25]: 96.2%
viability, T/C [26]: 82.3%
viability, T/C [27]: 37.1%
viability, T/C [28]: 24.3%
viability, T/C [29]: 8.67%
viability, T/C [30]: 4.32%
